Test results taken from patent US4263326A, “Antimicrobial compositions containing an octylphenone” (The Lion Dentrifice Co. Ltd., priority 1978, dated 1981).
Like-named read-outs stand apart in the source and are kept apart here.

Tests used:
Bacillus subtilis = experiment: Growth prevention of Bacillus subtilis in tripticase soy broth culture media at 37° C; format: cell-based
Procedure: For comparative purpose, three more culture media were prepared without addition of an antimicrobial agnet or with addition of 2% by weight of ethyl alcohol or 0.2% by weight of sorbic acid instead of the phenone compound and Bacillus subtilis was cultured therein similarly.

Oral LD50 in rats = format: in vivo; details: rat, in vivo, po
rats = experiment: Oral LD50 in rats; format: in vivo
[1] = Irritancy / physiological activity
Aspergillus niger = system: Aspergillus niger; design: key to the marks not given beside the values; details: 5%, 28° C
Procedure: (§1) The antifungal effect of the extract powder prepared in Example 2 was examined by adding it into potato-dextrose agar culture media in an amount of 0.2% by weight in which Aspergillus niger or Penicillium crysogenum were cultured at 28° C. For comparison, similar culture tests of the fungi were undertaken with the culture media in which no antimicrobial agent was added or 5% by weight of ethyl alcohol was added instead of the extract powder.
(§2) the results are summarized in Table 2 below, in which the marks "±" are for the cases where the growth of the molds was difficultly recognized, the marks "+" are for the cases where the growth of the molds could be recognized only of the hyphae though to a small extent, the mark "++" are for the cases where the growth could be recognized only of the hyphae to a considerable extent, and the marks "+++" and "++++" are for the cases where spores were formed.

Penicillium crysogenum = details: 5%, 28° C
Procedure: as §1, §2

With O=C(CCCCCCCCc1cc(O)ccc1O)c1c(O)cccc1O [2',6'-dihydroxy-9-(2,5-dihydroxyphenyl)octylphenone] the “duration of growth prevention” value (Bacillus subtilis; 0.002% by weight, tripticase soy broth) was ≥ 7.5 h, the “effectiveness compared with sorbic acid” value (Bacillus subtilis; 0.002% vs sorbic acid 0.2%) was “more effective than sorbic acid” and the “antimicrobial effect compared with sorbic acid” value (Bacillus subtilis; concentration one hundredth of that of sorbic acid) was “as good as that of sorbic acid”. The LD50 (Oral LD50 in rats) was ≥ 2000 mg/kg, the LD50 (rats) was 2000 mg/kg and the irritancy [1] was “non-irritant”. The physiological activity [1] was “physiologically inactive”.

In the case of C/C=C/C=C/C(=O)O [Sorbic acid, reference compound], the “duration of antimicrobial effect” value (Bacillus subtilis; 0.2% by weight, tripticase soy broth) is reported as “about 4.5 hours”.

With CCO [Ethyl alcohol] the growth of mold (Aspergillus niger; 10 days) was “++”, the growth of mold (Aspergillus niger; 18 days) was “++” and the growth of mold (Penicillium crysogenum; 10 days) was “±”. The growth of mold (Penicillium crysogenum; 18 days) was “++”.
